Results: the METLIN SMRT retention time set (Domingo-Almenara et al. 2019)

Assay: gradient 5% acetonitrile 3 min, to 50% in 2 min, to 85% in 15 min, held 3 min, 100 µL/min
Details: column: Zorbax Extend-C18 2.1 x 50 mm; eluents: water / acetonitrile, 0.1% formic acid
Procedure, shortened: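 Retention times of pure standards were taken from adduct peaks that were selected by computer and manually inspected. Over 3 months, mixtures of ~100 molecules were run by HPLC–quadrupole time-of-flight mass spectrometry in positive and negative ionization mode. The Zorbax Extend-C18 column (2.1 × 50 mm, 1.8 μm) ran at 100 μL/min in water and acetonitrile, each containing 0.1% formic acid, with 40 μL dead volume and 900 μL dwell volume.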

`Cn1cc(C2=CCN(S(=O)(=O)c3cccc4cccnc34)CC2)c2cccnc21` showed an RP-LC retention time of 889 s.
`Cc1ccc(NS(=O)(=O)c2cc(-c3[nH]ncc3C(=O)N(C)C)oc2C)cc1Cl` gave an RP-LC retention time of 730 s.
`CC(O)(CCc1ccccc1)CNC(=O)CN1C(=O)CCC1=O` (stereo not given) gave an RP-LC retention time of 631 s.
`CCc1ccc(NC(=O)NCC(c2cccnc2)c2c[nH]c3ccccc23)cc1` (stereo not given) gave an RP-LC retention time of 710 s.
`Cc1ccc(C)c(NC(=O)Cn2nc3c4sc(N(C)C)nc4ncn3c2=O)c1` gave an RP-LC retention time of 694 s.
Compound `O=C(NCCc1ccccc1)Nc1cnn(-c2ncc(N3CCCC3)cn2)c1` has an RP-LC retention time of 778 s.
For `Cc1cc(N2CCCC2)n2ncnc2n1`, the RP-LC retention time was 567 s.
`CCc1ccc(NC(=O)Cn2nc(N3CCCC3)c3ccccc3c2=O)cc1` gave an RP-LC retention time of 1030 s.
`O=C(CN1C(=O)COc2ccc(C(=O)N3CCCC3)cc21)NCCCc1ccccc1` gave an RP-LC retention time of 747 s.
Work on `Cc1ccccc1N1CCN(C(=O)c2csc(C(=O)NC3CC3)n2)CC1` yielded an RP-LC retention time of 884 s.
With `NNC(=O)c1nnsc1-c1csnn1` the RP-LC retention time was 657 s.
Compound `CC(C)c1noc(-c2ccn3c(CC(=O)N4CCCCC4)nnc3c2)n1` has an RP-LC retention time of 721 s.
For `Cc1ccc(Sc2nccnc2N2CCCC(C(=O)Nc3ccc(C)c(C)c3)C2)cc1` (stereo not given), the RP-LC retention time was 1290 s.
`CSc1cccc(NC(=O)N2CCC(c3nc(C(=O)N(C)C)c(C)o3)CC2)c1` gave an RP-LC retention time of 732 s.
In the case of `CCOC(=O)c1[nH]c(C)c(CCC(=O)N2CCCC(C(=O)NC3CCCCCC3)C2)c1C` (stereo not given), the RP-LC retention time was 868 s.
With `CN(Cc1ccccc1)c1ncc(C(=O)O)c(-c2ccncc2)n1` the RP-LC retention time was 675 s.
Work on `COC(=O)c1ccc2c(c1)nnn2Cc1ccc(F)cc1` yielded an RP-LC retention time of 916 s.
For `Cn1cc(CCN2CCN(S(=O)(=O)c3ccc(C#N)cc3)CC2)c2cccnc21`, the RP-LC retention time was 616 s.
With `O=C(c1ccc(CS(=O)c2cccc(Cl)c2)o1)N1CCN(c2ccccn2)CC1` (stereo not given) the RP-LC retention time was 602 s.
Compound `COc1ccc(C)cc1NC(=O)CNC(=O)c1ccc(=O)[nH]c1` has an RP-LC retention time of 588 s.
`CN(C)S(=O)(=O)c1ccc2c(c1)N(CC(=O)NCc1cccc(F)c1)C(=O)C1CCCCN21` (stereo not given) gave an RP-LC retention time of 900 s.
`O=C(Cn1nc2c(c1NC(=O)c1cnccn1)CSC2)NCc1ccco1` gave an RP-LC retention time of 664 s.
Compound `Cc1cccc(NC(=O)C2CN(C(=O)c3cc(C)on3)C2)n1` has an RP-LC retention time of 601 s.
With `Cc1cccc2c(=O)n(C)c(CCC(=O)NCc3cc(F)ccc3F)nc12` the RP-LC retention time was 814 s.
With `CC1CCN(S(=O)(=O)c2ccc3c(c2)CCCC(=O)N3CC(=O)N2CCOCC2)CC1` the RP-LC retention time was 768 s.
With `CCc1nc(-c2cn(Cc3ccc(F)cc3)nn2)no1` the RP-LC retention time was 822 s.
`Cc1nn(CC(=O)N2CCN(c3ccc(Cl)cc3)CC2)c(=O)c2nc(C(C)C)sc12` gave an RP-LC retention time of 921 s.
With `Cc1cc(=O)n(CC(=O)Nc2ccc(C(F)(F)F)cc2)c(N2CCOCC2)n1` the RP-LC retention time was 759 s.
With `O=C(NCc1cc(-c2ccc3c(c2)OCCO3)on1)c1ccc2nsnc2c1` the RP-LC retention time was 788 s.
`O=C(Nc1cccc(OCc2nnc(-c3ccc(Cl)cc3)o2)c1)c1ccsc1` showed an RP-LC retention time of 1010 s.
Work on `CC(C)(C)c1ccc(S(=O)(=O)N2CCC(C(=O)NCc3csc(-c4ccccc4)n3)CC2)cc1` yielded an RP-LC retention time of 1130 s.
With `O=C(Cc1cccs1)N1CCCC1c1nc(-c2cccc(Cl)c2)no1` (stereo not given) the RP-LC retention time was 1050 s.
`O=C(NCC1CCCO1)c1ccc(CN2CCN(Cc3ccc(F)cc3)C(=O)C2=O)cc1` (stereo not given) gave an RP-LC retention time of 676 s.
With `CCOC(=O)c1c(NC(=O)CSc2nnc(-c3cccnc3)o2)sc2c1CCC2` the RP-LC retention time was 932 s.
For `CCn1c(=O)sc2cc(S(=O)(=O)N3CCC(C(=O)Nc4ncccc4C)CC3)ccc21`, the RP-LC retention time was 666 s.
With `C=CCn1c(=O)c2ccccc2n(Cc2nc(-c3cccc(C)c3)no2)c1=O` the RP-LC retention time was 1080 s.
Compound `CCn1c(=O)c(N2CCCC(C(=O)NC3CCN(Cc4ccccc4)CC3)C2)nc2ccccc21` (stereo not given) has an RP-LC retention time of 685 s.
Work on `COc1ccc(-c2nc(Nc3ccc(C)cc3)sc2C)cc1` yielded an RP-LC retention time of 1060 s.
In the case of `COc1ccc(-c2ccc3nc(N4CCC(C(=O)O)CC4)sc3n2)cc1`, the RP-LC retention time was 825 s.
Work on `O=C(Nc1c(-c2ccc(F)cc2)nc2ccccn12)c1ccc2c(c1)OCO2` yielded an RP-LC retention time of 651 s.
For `CSc1ccc(CNC(=O)C2CCN(Cc3cn(C)c4ccc(Cl)cc34)CC2)cc1`, the RP-LC retention time was 766 s.
Compound `CCN1CCN(CCNC(=O)c2cc(-c3ccc(Cl)cc3)cn2C)CC1` has an RP-LC retention time of 644 s.
`COCCn1cc2c3c(cccc31)CN(C(=O)Nc1cc(OC)c(OC)c(OC)c1)CC2` showed an RP-LC retention time of 825 s.
Compound `COc1ccc(C2Cn3cnc(C(=O)N4CCC(C(=O)NC5CCCC5)CC4)c3CO2)cc1` (stereo not given) has an RP-LC retention time of 705 s.
In the case of `O=C(NC1CC1)c1nnn2c1COC(c1ccc(Cl)cc1)C2` (stereo not given), the RP-LC retention time was 859 s.
